We go through one compound from patent US10471076B2, “Compositions and methods to treat vision disorders” (YouHealth Biotech, Limited, priority 2014, dated 2019).

Values joined by “and” are separate entries in the source; they are usually repeats but may differ in a detail not shown here. Equal entries are not always repeated.

Assay [1] deals with amyloid-like fibrils of crystallin proteins. Kind of assay: Re-dissolution of pre-formed amyloid-like fibrils (ThT fluorescence, TEM, turbidity). It counts as biochemical, human. The settings on record: 0.2 mg/ml aggregates; 500 μM sterols in 500 μM DPPC liposome (b129 prints 500 mM), 37° C., 24 h; TEM and ThT fluorescence; concentration-dependent.
Description: Crystallin aggregates were formed by incubating 5 mg ml^−1 protein solution at 60° C. for 2 h (α-crystallins) or 37° C. for 48 h (β- and γ-crystallins) in the presence of 1 M guanidine chloride. The preformed aggregates were re-suspended in PBS at a final protein concentration of 0.2 mg ml^−1 and were treated with 500 μM sterols in 500 μM DPPC liposome and incubated at 37° C. for 24 h. Aggregates treated with 500 μM DPPC liposome only were used as the controls. […] Aggregates treated with 500 μM DPPC liposome only were used as the controls.
All protein samples were prepared in 20 mM PBS buffer containing 150 mM NaCl, 1 mM EDTA and 1 mM DTT.
Protein aggregation and aggregate dissociation. The aggregates of the wild-type and mutated αA- and αB-crystallin proteins were obtained by heating the protein solutions containing 1 M guanidine chloride (ultrapure, Sigma-Aldrich) at a con-centration of 5 mg/ml at 60° C. for 2 h. The aggregates of the wild-type and mutated b- and c-crystallins were prepared by heating the protein solutions containing 1 M guanidine chloride at 37° C. for 48 h. The formation of aggregates was confirmed by ThT fluorescence, turbidity (absorbance at 400 nm) and transmission electron microscopy (TEM) observations. […] After 24 h of treatment, the protein solutions were used for ThT fluorescence, turbidity and negatively stained TEM observations. […]
In another assay the test system is dog eyes with cataracts. Kind of assay: Treatment of cataractous lenses in dogs in vivo. Set-up: key to cataract grade before treatment, treatment group / cataract grade after treatment, treatment group: Grade 0: absence of opacification (no cataract); Grade 1: a slight degree of opacification (incipient stage); Grade 2: presence of diffuse opacification involving almost the entire lens (immature stage); Grade 3: presence of extensive, thick opacification involving the entire lens (mature stage). Here is the method:
Preparation of drug-loaded nanoparticles. Lanosterol was loaded into a lipid-polymer hybrid nanoparticle through an adapted nanoprecipitation method^34. In brief, the desired concentration of lanosterol was mixed with polycaprolactone (PCL) polymer dissolved in acetonitrile. Lecithin and 1,2-distearoyl-sn-glycero-3-phosphoethanolamine-N-carboxy(polyethylene glycol) 2000 (DSPE-PEG-COOH) were dissolved in a 4% ethanol aqueous solution at 20% of the PCL polymer weight and heated above 60° C. The lanosterol/PCL solution was then added into the preheated lipid solution under gentle stirring followed by rigorous vortexing for 3 min. The mixture solution was then stirred for 2 h to allow the nanoparticles to form and the acetonitrile to evaporate. Next, the nanoparticle solution was washed three times using an Amicon Ultra-4 centrifugal filter (Millipore) with a molecular weight cut-off of 10 kDa to remove the remaining organic solvent and free molecules. The resulting nanoparticles were then re-suspended in PBS buffer for sub-sequent use. The size, size distribution, and surface zeta potential of the drug-loaded nanoparticles were characterized by dynamic light scattering. The loading yield of lanosterol was quantified by high-performance liquid chromatography.
Treatment of cataractous lenses in dogs. To assess the effect of lanosterol treatment on cataracts in live animals, dogs were pre-medicated with intramuscular injections of acepromaxine and butorphanol. After 20 min, induction of anaesthesia was performed by application of intravenous propofol. Dogs were then immediately intubated and maintained on oxygen and 2% isoflurane at […]. Lanosterol (100 mg)-loaded nanoparticles were initially injected into the vitreous cavity in the test eye using a 28-gauge needle, and then were given every 3 days for the duration of the experiment. Treatment eyes or sham eyes were randomized. […] Degree of cataract severity was assessed by a blinded examiner and scored based on canine cataract stage, shown below^35. Improvements in lens clarity and transparency were quantified. […]

As to `CC(C)=CCC[C@@H](C)[C@H]1CC[C@@]2(C)C3=C(CC[C@]12C)[C@@]1(C)CC[C@H](O)C(C)(C)[C@@H]1CC3` [lanosterol, 3β-Hydroxy-8,24-lanostadiene; 8,24-Lanostadien-3β-ol], in assay [1], the “re-dissolution of aggregated crystallin proteins from amyloid-like fibrils” value was “successfully re-dissolved the aggregated crystallin proteins”. Further, in the assay on dog eyes with cataracts (dog study eye, baseline, n=7), the “cataract grade before treatment, treatment group” value is 1 and 2 and 3. Besides, the “cataract grade after treatment, treatment group” value in the assay on dog eyes with cataracts (dog study eye, intravitreal lanosterol (100 mg)-loaded nanoparticles every 3 days plus 25 mM lanosterol eye drops three times daily, 6 weeks, n=7) was 0 and 1. For the same compound, the “cataract severity / lens clarity” value with dog eyes with cataracts (dogs in vivo, 6 weeks of lanosterol, P<0.009, Wilcoxon Test) is “significantly reduced cataract severity and increased lens clarity”.
